In ChEMBL document CHEMBL1641523, “Hypericins and thioredoxin reductase: Biochemical and docking studies disclose the molecular basis for effective inhibition by naphthodianthrones” (Bioorg Med Chem, 2011):
The source made the active and inactive calls. The rule behind the calls is not given here.

Legend:
[1] = biological target: Thioredoxin reductase 2, mitochondrial (Rattus norvegicus, UniProt Q9Z0J5); test: Inhibition of rat liver mitochondrial TrxR2 by spectrophotometry
[2] = biological target: T1, Thioredoxin reductase 1, cytoplasmic (Rattus norvegicus, UniProt O89049); test: Inhibition of rat liver cytosolic TrxR1 by spectrophotometry
T1 sequence (O89049 whole entry): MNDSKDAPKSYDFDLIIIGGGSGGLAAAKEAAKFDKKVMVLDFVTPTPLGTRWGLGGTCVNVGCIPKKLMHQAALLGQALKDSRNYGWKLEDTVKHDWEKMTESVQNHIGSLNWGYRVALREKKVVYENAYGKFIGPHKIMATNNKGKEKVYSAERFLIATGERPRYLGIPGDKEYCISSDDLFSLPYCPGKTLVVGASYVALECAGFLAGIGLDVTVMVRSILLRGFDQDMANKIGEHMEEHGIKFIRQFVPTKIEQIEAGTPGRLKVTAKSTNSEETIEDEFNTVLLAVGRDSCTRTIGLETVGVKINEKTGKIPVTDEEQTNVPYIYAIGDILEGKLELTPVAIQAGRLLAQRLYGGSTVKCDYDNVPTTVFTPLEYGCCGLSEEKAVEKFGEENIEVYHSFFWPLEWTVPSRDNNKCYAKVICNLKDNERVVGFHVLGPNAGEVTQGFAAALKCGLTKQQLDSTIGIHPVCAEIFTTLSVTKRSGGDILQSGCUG

[3] = biological target: T2, Thioredoxin reductase 1, cytoplasmic (Rattus norvegicus) (UniProt O89049); test: Inhibition of rat liver cytosolic TrxR1 at 100 uM by spectrophotometry in presence of 0.25 mM NADPH
T2 sequence (whole entry): T1 sequence (O89049 whole entry)

[4] = biological target: Thioredoxin reductase 2, mitochondrial (Rattus norvegicus) (UniProt Q9Z0J5); test: Inhibition of rat liver mitochondrial TrxR2 at 100 uM by spectrophotometry in presence of 0.25 mM NADPH
[5] = biological target: T2, Thioredoxin reductase 1, cytoplasmic (Rattus norvegicus); test: Inhibition of rat liver cytosolic TrxR1 at 20 uM after 1 hr by spectrophotometry
[6] = biological target: T2, Thioredoxin reductase 1, cytoplasmic (Rattus norvegicus); test: Inhibition of rat liver cytosolic TrxR1 at 20 uM after 2 mins by spectrophotometry
Glutathione reductase = biological target: T3, Glutathione reductase (Saccharomyces cerevisiae S288c, UniProt P41921); test: Inhibition of yeast glutathione reductase by spectrophotometry
T3 sequence (P41921 whole entry): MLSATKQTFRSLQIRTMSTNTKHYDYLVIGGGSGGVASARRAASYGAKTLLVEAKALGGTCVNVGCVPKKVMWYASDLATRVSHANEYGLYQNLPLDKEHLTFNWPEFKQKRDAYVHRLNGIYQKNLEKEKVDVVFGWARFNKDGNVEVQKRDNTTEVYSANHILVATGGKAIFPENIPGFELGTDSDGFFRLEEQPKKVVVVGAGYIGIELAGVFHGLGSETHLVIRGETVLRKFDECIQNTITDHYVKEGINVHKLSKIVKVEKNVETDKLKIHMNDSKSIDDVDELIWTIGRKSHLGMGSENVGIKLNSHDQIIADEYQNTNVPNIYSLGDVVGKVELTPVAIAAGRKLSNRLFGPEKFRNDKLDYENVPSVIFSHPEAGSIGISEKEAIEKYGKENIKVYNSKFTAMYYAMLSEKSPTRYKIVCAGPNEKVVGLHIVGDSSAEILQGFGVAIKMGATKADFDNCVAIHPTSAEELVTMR

[7] = biological target: T2, Thioredoxin reductase 1, cytoplasmic (Rattus norvegicus); test: Inhibition of rat liver cytosolic TrxR1 at 50 to 100 uM by spectrophotometry in presence of 0.025 mM NADPH
[8] = biological target: T1, Thioredoxin reductase 1, cytoplasmic; test: Mixed-type inhibition of rat liver cytosolic TrxR1 by Lineweaver-Burk plot analysis
[9] = biological target: T1, Thioredoxin reductase 1, cytoplasmic; test: Mixed-type inhibition of rat liver cytosolic TrxR1 at protein-substrate complex by Lineweaver-Burk plot analysis
[10] = biological target: T2, Thioredoxin reductase 1, cytoplasmic (Rattus norvegicus); test: Inhibition of rat liver cytosolic TrxR1 at 5 uM after 2 mins by spectrophotometry

Chain of Thioredoxin reductase 2, mitochondrial (Q9Z0J5 whole entry): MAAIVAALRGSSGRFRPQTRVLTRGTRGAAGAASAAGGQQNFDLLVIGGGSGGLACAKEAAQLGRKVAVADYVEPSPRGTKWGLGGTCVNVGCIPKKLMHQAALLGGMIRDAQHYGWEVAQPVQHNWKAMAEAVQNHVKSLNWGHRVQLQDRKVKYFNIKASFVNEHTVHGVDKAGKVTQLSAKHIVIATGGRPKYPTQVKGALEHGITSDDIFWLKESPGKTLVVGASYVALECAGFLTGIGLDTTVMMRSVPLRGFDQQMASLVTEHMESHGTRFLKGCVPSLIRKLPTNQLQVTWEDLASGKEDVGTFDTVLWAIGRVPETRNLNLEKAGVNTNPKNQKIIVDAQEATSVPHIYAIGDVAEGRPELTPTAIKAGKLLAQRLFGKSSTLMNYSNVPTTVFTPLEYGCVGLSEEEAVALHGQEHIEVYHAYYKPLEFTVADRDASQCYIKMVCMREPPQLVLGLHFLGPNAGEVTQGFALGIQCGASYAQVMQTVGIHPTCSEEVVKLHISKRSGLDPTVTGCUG
Chain of Thioredoxin reductase 2, mitochondrial (Rattus norvegicus) (Q9Z0J5 whole entry): as above

| Structure (SMILES) | IC50 ([1]; read-out: IC50) | IC50 ([2]; read-out: IC50) | further results |
| --- | --- | --- | --- |
| O=C1c2cccc(O)c2C(=O)c2c(O)cc(CO)cc21 [ALOE-EMODIN] | > 200 µM | 180 µM |  |
| O=C1c2c(O)cccc2C([C@@H]2O[C@H](CO)[C@@H](O)[C@H](O)[C@H]2O)c2cc(CO)cc(O)c21 (some centres not stated) [ALOIN] | > 200 µM | > 200 µM |  |
| O=C1c2ccccc2Cc2ccccc21 [ANTHRONE] | > 200 µM | > 200 µM |  |
| Cc1cc(O)c2c(c1)C(=O)c1cccc(O)c1C2=O [CHRYSOPHANOL] | 181 µM | 194 µM |  |
| O=C1c2cccc(O)c2C(=O)c2c(O)cccc21 [DANTHRON] | > 200 µM | > 200 µM |  |
| Cc1cc(O)c2c(c1)C(=O)c1cc(O[C@@H]3O[C@@H](C)[C@H](O)[C@@H](O)[C@H]3O)cc(O)c1C2=O [FRANGULIN A] | > 200 µM | > 200 µM |  |
| Cc1cc(O)c2c(=O)c3c(O)cc(O)c4c5c(O)cc(O)c6c(=O)c7c(O)cc(C)c8c1c2c(c34)c(c78)c65 [HYPERICIN] | 49 µM | 198 µM | IC50 ([1]; read-out: pIC50 (converted)): 43.2 µM; inhibition [3]: inactive; inhibition [4]: inactive; IC50 ([2]; read-out: pIC50 (converted)): 158 µM; inhibition [5]: 60%; inhibition [6]: 20%; IC50 (Glutathione reductase): 3.67 µM |
| COc1cc(O)c2c(c1)C(=O)c1cc(C)cc(O)c1C2=O [PHYSCION] | 132 µM | 185 µM |  |
| Cc1cc(O)c2c(=O)c3c(O)cc(O)c4c5c(O)cc(O)c6c(=O)c7c(O)cc(CO)c8c1c2c(c34)c(c65)c78 [PSEUDOHYPERICIN] | 7.9 µM | 4.6 µM | inhibition [7]: Active; Ki [8]: 1.9 µM; IC50 ([1]; read-out: pIC50 (converted)): 7.45 µM; inhibition [3]: Active; Ki [9]: 8.1 µM; inhibition [4]: Active; IC50 ([2]; read-out: pIC50 (converted)): 4.41 µM; IC50 (Glutathione reductase): 2.2 µM; inhibition [10]: 50% |
| O=C1c2ccccc2C(=O)c2c(O)ccc(O)c21 [QUINIZARIN] | > 200 µM | > 200 µM |  |
| O=C(O)c1cc(O)c2c(c1)C(=O)c1cccc(O)c1C2=O [RHEIN] | 123 µM | 84 µM |  |
| O=C(O)c1cc(O)c2c(c1)C([C@H]1c3cc(C(=O)O)cc(O)c3C(=O)c3c(O[C@@H]4O[C@H](CO)[C@@H](O)[C@H](O)[C@H]4O)cccc31)c1cccc(O[C@@H]3O[C@H](CO)[C@@H](O)[C@H](O)[C@H]3O)c1C2=O (some centres not stated) [SENNOSIDE A,B] | > 200 µM | > 200 µM |  |
| Cc1cc(O)c2c(c1)C(=O)c1c(c(O)cc(O)c1-c1c(O[C@@H]3O[C@H](CO)[C@@H](O)[C@H](O)[C@H]3O)cc(O)c3c1C(=O)c1cc(C)cc(O)c1C3=O)C2=O [SKYRIN GLUCOSIDE] | > 200 µM | > 200 µM |  |
